Laboratory results taken from ChEMBL document CHEMBL5291721, “A preclinical secondary pharmacology resource illuminates target-adverse drug reaction associations of marketed drugs” (Nat Commun, 2023).

Assays:
[1] = target: T1, Amine oxidase [flavin-containing] A (Homo sapiens, UniProt P21397); type: functional
T1 sequence (P21397 whole entry): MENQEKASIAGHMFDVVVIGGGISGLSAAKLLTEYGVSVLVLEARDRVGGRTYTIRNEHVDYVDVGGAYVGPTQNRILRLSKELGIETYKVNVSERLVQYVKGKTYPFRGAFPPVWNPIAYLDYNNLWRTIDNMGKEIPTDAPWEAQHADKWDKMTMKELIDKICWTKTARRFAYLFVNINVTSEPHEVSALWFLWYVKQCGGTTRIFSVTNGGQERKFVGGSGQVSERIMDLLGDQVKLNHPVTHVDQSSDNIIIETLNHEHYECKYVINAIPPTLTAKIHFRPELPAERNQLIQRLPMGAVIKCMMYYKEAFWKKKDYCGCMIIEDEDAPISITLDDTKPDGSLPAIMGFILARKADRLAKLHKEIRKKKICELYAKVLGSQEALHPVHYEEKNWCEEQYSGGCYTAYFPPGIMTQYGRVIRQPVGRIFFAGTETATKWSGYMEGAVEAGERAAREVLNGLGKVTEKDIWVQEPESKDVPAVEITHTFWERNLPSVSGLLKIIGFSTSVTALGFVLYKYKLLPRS

[2] = target: Voltage-gated inwardly rectifying potassium channel KCNH2 (Homo sapiens, UniProt Q12809); type: functional
Sequence of Voltage-gated inwardly rectifying potassium channel KCNH2 (Q12809 whole entry): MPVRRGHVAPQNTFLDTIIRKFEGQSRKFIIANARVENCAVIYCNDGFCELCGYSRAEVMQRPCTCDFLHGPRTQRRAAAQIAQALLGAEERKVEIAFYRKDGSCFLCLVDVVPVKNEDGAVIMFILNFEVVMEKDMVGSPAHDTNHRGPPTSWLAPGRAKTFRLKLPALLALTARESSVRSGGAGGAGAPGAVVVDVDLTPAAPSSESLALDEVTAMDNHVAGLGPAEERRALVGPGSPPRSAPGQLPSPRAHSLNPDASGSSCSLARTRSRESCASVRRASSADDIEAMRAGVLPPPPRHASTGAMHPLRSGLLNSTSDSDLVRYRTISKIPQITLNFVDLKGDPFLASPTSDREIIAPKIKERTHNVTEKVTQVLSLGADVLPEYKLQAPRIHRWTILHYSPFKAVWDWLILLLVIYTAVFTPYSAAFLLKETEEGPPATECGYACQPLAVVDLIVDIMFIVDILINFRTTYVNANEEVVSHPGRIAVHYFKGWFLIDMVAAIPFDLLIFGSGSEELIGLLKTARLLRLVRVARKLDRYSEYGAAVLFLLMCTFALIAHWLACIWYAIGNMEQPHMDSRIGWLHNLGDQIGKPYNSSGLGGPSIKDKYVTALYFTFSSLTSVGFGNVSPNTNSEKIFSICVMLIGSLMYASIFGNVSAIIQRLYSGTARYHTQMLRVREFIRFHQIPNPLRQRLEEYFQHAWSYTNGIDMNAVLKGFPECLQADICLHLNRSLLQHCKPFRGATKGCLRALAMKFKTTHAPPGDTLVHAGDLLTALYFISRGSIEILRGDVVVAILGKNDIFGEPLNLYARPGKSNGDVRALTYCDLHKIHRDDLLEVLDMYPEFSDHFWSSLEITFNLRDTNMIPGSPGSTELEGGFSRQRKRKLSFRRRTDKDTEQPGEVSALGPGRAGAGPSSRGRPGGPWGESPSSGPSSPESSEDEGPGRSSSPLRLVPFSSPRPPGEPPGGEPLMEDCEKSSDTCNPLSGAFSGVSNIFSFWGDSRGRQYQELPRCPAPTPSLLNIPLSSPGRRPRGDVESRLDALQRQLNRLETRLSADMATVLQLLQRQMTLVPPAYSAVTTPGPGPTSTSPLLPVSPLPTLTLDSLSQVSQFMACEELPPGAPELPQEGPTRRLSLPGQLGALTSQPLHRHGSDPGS

[3] = target: T2, Equilibrative nucleoside transporter 1 (Homo sapiens, UniProt Q99808)
T2 sequence (Q99808 whole entry): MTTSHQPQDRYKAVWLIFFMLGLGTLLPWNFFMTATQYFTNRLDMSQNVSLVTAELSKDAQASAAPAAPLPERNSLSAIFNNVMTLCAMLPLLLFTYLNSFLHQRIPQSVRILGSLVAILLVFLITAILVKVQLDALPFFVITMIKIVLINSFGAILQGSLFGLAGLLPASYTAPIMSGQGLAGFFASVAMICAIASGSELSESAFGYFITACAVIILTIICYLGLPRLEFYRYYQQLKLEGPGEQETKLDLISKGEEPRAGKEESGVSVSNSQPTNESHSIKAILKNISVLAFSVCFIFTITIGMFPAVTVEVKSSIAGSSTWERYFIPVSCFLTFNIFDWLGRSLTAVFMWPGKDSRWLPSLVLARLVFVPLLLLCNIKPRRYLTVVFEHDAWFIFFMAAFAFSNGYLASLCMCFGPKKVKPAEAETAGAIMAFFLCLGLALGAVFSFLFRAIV

[4] = target: T3, Progesterone receptor (Homo sapiens, UniProt P06401); type: functional
T3 sequence (P06401 whole entry): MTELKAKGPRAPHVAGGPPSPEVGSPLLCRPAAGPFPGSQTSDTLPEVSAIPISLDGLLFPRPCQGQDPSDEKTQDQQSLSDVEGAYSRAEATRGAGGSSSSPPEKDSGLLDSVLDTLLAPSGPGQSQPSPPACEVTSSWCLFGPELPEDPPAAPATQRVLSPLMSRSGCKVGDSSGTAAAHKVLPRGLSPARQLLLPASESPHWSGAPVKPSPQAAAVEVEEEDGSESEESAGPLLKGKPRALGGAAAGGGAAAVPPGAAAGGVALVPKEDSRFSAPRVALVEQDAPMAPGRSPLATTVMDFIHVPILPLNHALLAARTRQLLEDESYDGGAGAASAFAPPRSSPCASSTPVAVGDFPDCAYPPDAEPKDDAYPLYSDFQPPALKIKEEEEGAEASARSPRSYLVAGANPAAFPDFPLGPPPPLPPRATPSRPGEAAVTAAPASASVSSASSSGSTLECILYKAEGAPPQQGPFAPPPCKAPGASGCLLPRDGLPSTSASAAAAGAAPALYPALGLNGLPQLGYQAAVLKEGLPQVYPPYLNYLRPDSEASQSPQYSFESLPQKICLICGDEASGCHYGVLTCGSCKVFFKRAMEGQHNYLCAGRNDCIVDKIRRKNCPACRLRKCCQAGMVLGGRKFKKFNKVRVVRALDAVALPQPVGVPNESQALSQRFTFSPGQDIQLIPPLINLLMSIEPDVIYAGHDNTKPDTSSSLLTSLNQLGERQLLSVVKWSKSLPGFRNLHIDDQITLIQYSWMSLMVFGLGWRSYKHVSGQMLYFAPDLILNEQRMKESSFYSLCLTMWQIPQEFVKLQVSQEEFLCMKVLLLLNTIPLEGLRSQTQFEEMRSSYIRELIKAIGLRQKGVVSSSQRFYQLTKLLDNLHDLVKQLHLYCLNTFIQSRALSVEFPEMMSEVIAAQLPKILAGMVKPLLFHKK

[5] = target: T4, Alpha-2B adrenergic receptor (Homo sapiens, UniProt P18089)
T4 sequence (P18089 whole entry): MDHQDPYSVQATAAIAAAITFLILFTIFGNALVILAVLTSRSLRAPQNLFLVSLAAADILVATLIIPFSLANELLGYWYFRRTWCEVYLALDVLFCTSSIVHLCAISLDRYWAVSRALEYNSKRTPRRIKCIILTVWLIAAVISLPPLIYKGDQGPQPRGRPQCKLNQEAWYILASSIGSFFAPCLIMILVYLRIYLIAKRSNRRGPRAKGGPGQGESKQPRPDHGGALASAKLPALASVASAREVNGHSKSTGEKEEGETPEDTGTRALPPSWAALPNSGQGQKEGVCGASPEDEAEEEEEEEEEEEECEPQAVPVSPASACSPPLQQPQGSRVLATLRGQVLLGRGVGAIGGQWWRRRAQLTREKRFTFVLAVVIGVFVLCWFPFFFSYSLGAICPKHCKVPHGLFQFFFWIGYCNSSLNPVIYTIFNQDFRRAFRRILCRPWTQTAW
Note: assay procedure not described here.

| Compound | AC50 [1] | AC50 ([2]; read-out: AC50) | AC50 [3] | AC50 [4] | AC50 [5] | AC50 ([2]; human, cellular components) |
| --- | --- | --- | --- | --- | --- | --- |
| Nc1nc2c(c(=O)[nH]1)N(C=O)C(CNc1ccc(C(=O)N[C@@H](CCC(=O)O)C(=O)O)cc1)CN2 (some centres undefined) [LEUCOVORIN] | > 30 µM | > 30 µM | > 30 µM | > 30 µM |  |  |
| CC#CCn1c(N2CCC[C@@H](N)C2)nc2c1c(=O)n(Cc1nc(C)c3ccccc3n1)c(=O)n2C [LINAGLIPTIN] | > 10 µM |  | > 30 µM |  | > 10 µM |  |
| O=C1CN=C(c2ccccc2)c2cc(Cl)ccc2N1 [NORDAZEPAM] | > 10 µM |  | > 30 µM |  | > 10 µM |  |
| CC(CCc1ccccc1)NC(C)C(O)c1ccc(O)cc1 (centres undefined) [NYLIDRIN] | > 10 µM | 6.3 µM | > 30 µM |  | 0.73 µM |  |
| O=C1Nc2ccc(Cl)cc2C(c2ccccc2)=NC1O (centres undefined) [OXAZEPAM] | > 10 µM |  | > 30 µM |  | > 10 µM |  |
| CCn1cc(C(=O)O)c(=O)c2cc(F)c(N3CCN(C)CC3)cc21 [PEFLOXACIN] | > 30 µM |  | > 30 µM | > 30 µM |  |  |
| CC[N+]1(C)CCCC(OC(=O)C(O)(c2ccccc2)c2ccccc2)C1 (centres undefined) [PIPENZOLATE] | > 30 µM | 0.97 µM |  | > 30 µM | > 30 µM |  |
| C[n+]1ccccc1/C=N/O [PRALIDOXIME] | > 30 µM | > 30 µM |  |  |  |  |
| CCCNC(C)C(=O)Nc1ccccc1C (centres undefined) [PRILOCAINE] | > 30 µM | > 30 µM | > 30 µM | > 30 µM |  |  |
| CC(C)CC(N(C)C)C1(c2ccc(Cl)cc2)CCC1 (centres undefined) [SIBUTRAMINE] | > 10 µM | 8.34 µM | > 30 µM |  |  |  |
| [H]/N=C(/N)N[C@H]1[C@H](O)[C@@H](O)[C@H](O[C@@H]2O[C@@H](C)[C@](O)(C=O)[C@H]2O[C@@H]2O[C@@H](CO)[C@H](O)[C@@H](O)[C@@H]2NC)[C@@H](N/C(N)=N\[H])[C@@H]1O [STREPTOMYCIN] | > 30 µM | > 30 µM | > 30 µM | > 30 µM |  |  |
| CN1c2ccccc2C(NCCCCCCC(=O)O)c2ccc(Cl)cc2S1(=O)=O (centres undefined) [TIANEPTINE] | > 30 µM |  |  | > 30 µM | > 30 µM |  |
| CC(C)(C)NC[C@H](O)COc1nsnc1N1CCOCC1 [TIMOLOL] | > 30 µM | > 30 µM | > 30 µM | > 30 µM |  |  |
| COc1cc2nccc(Oc3ccc(NC(=O)Nc4cc(C)on4)c(Cl)c3)c2cc1OC [TIVOZANIB] | > 30 µM | > 1 µM | > 3 µM | > 3 µM |  |  |
| Cc1cccc(N(C)C(=S)Oc2ccc3ccccc3c2)c1 [TOLNAFTATE] | > 30 µM | > 30 µM | > 10 µM | > 30 µM |  |  |
| CN1[C@@H]2CC[C@H]1C[C@@H](OC(=O)c1c[nH]c3ccccc13)C2 [TROPISETRON] | > 30 µM | 0.95 µM |  |  |  |  |
| COc1ccc(C(CN(C)C)C2(O)CCCCC2)cc1 (centres undefined) [VENLAFAXINE] | > 10 µM | > 30 µM | > 30 µM |  |  |  |
| N#C[C@@H]1CCCN1C(=O)CNC12CC3CC(CC(O)(C3)C1)C2 [VILDAGLIPTIN] | > 30 µM | > 30 µM | > 30 µM |  | > 30 µM |  |
| COLISTIN | > 30 µM |  |  |  | > 30 µM | > 30 µM |
